Measured values from US12590099B2, “Inhibitors of histone deacetylase useful for the treatment or prevention of HIV infection” (Merck Sharp & Dohme LLC, priority 2018, dated 2026).

Tests used:
Format in all cases: biochemical
Recombinant human HDAC1 = target: T1, Recombinant human HDAC1 (Homo sapiens, UniProt Q13547); assay: Human HDAC enzyme inhibitor Fluor-de-Lys assay, HDAC1
T1 construct: FLAG (C); made in house
Procedure, shortened: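 Fluor-de-Lys format at room temperature (23° C.): compounds titrated 10-point, 1:3, preincubated with HDAC before substrate addition; HDAC1 run at 0.3 nM enzyme with 20 μM BML-KI104. Developer with excess HDAC inhibitor ends the reaction, and trypsin-liberated AMC fluorescence is the read-out.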

HDAC6 = target: T2, HDAC6 (Homo sapiens, UniProt Q9UBN7); assay: Human HDAC enzyme inhibitor Fluor-de-Lys assay, HDAC6
T2 sequence (Q9UBN7 1-1215): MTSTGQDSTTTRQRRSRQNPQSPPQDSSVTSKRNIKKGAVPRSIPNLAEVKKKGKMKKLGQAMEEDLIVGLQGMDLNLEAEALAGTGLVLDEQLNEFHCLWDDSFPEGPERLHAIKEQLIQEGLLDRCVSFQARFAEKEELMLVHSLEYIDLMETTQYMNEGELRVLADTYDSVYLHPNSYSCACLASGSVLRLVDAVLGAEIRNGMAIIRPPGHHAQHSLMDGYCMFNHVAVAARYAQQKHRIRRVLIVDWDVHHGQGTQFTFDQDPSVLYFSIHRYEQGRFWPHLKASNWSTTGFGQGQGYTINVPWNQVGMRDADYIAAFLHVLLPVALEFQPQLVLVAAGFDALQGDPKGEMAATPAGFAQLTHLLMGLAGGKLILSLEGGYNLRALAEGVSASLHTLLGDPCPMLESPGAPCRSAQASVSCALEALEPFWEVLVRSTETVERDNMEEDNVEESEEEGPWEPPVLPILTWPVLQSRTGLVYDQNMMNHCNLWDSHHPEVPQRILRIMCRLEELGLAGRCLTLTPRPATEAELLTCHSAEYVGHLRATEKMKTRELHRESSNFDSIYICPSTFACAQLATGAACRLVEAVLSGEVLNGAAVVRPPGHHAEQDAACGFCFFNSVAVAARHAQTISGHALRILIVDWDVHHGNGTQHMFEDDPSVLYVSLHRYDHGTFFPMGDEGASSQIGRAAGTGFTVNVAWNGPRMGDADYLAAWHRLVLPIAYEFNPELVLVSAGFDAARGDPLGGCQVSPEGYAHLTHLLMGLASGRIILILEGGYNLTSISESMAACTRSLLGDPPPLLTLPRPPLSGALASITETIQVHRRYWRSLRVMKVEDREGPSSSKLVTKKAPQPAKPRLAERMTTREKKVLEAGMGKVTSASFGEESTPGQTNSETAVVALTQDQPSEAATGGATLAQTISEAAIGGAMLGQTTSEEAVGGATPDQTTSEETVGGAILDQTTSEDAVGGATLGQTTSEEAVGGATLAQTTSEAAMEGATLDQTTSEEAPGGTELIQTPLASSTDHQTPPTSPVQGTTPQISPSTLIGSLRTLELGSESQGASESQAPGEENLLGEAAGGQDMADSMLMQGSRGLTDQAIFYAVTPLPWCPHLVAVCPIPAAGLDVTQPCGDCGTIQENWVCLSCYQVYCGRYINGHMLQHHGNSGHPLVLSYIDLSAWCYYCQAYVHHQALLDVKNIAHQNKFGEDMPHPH

[1] = target: T3, Recombinant human HDAC3/SMRT heterodimer (Homo sapiens, UniProt O15379); assay: Human HDAC enzyme inhibitor Fluor-de-Lys assay, HDAC3/SMRT
T3 construct: FLAG (C); made in house
T3 sequence (O15379 whole entry): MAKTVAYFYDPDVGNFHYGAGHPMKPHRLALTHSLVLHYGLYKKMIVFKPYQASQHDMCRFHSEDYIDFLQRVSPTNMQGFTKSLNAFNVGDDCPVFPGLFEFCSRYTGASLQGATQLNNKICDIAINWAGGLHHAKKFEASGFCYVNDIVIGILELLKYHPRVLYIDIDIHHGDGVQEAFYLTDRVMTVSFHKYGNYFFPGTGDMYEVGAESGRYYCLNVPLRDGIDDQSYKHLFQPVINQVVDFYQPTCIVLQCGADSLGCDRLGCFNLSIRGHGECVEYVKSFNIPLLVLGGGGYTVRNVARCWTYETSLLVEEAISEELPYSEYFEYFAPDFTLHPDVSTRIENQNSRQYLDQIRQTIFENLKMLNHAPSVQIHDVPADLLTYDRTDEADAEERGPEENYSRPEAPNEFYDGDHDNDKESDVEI
T3 sequence (Q9Y618 1-899 partner limits assumed): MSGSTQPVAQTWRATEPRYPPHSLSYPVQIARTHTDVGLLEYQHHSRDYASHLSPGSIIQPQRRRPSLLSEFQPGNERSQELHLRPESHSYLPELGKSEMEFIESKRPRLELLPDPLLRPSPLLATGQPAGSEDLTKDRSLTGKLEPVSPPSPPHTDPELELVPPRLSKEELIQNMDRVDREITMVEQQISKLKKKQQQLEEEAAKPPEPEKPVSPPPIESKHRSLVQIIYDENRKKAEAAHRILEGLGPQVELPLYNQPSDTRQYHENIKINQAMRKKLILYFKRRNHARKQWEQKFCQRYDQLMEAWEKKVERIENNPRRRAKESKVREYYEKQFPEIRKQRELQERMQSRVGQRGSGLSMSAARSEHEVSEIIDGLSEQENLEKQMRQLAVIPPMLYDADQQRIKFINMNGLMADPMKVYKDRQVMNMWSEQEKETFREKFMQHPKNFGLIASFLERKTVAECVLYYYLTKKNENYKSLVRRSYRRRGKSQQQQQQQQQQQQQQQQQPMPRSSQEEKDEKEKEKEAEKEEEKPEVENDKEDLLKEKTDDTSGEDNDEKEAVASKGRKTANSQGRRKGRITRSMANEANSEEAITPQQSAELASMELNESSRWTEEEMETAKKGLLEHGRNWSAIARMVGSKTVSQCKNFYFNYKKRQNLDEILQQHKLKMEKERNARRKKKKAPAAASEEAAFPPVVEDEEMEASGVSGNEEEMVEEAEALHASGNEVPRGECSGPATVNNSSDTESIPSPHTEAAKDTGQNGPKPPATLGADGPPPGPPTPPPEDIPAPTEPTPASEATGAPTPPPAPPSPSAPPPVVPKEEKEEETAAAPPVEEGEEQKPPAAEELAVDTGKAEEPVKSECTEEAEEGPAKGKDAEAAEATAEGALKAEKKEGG

Recombinant human HDAC2 = target: T4, Recombinant human HDAC2 (Homo sapiens, UniProt Q92769); assay: Human HDAC enzyme inhibitor Fluor-de-Lys assay, HDAC2
T4 construct: Full length human HDAC2-FLAG was expressed in baculovirus infected Sf9 cells; FLAG (C); made in house; host or cells: Sf9 (baculovirus)
T4 sequence (Q92769 whole entry): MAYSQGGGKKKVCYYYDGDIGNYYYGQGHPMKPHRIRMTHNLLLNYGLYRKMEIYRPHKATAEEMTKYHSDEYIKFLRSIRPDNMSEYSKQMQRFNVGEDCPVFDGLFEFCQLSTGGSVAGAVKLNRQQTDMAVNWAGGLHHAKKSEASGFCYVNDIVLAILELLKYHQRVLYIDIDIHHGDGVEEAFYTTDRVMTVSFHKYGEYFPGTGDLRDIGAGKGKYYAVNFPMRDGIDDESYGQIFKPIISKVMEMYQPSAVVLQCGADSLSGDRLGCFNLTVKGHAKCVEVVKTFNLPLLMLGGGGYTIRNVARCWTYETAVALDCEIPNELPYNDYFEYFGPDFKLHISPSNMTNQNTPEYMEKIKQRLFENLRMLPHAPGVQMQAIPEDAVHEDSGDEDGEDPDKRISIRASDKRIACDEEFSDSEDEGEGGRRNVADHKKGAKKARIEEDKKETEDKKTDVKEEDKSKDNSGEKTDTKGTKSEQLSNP
Procedure, shortened: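 Fluor-de-Lys format at room temperature (23° C.): compounds titrated 10-point, 1:3, preincubated with HDAC before substrate addition. Developer with excess HDAC inhibitor ends the reaction, and trypsin-liberated AMC fluorescence is the read-out.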

Recombinant human HDAC8 = target: T5, Recombinant human HDAC8 (Homo sapiens, UniProt Q9BY41); assay: Human HDAC enzyme inhibitor Fluor-de-Lys assay, HDAC8
T5 construct: purchased Enzo Life Sciences BML-SE145-0100
T5 sequence (Q9BY41 1-377): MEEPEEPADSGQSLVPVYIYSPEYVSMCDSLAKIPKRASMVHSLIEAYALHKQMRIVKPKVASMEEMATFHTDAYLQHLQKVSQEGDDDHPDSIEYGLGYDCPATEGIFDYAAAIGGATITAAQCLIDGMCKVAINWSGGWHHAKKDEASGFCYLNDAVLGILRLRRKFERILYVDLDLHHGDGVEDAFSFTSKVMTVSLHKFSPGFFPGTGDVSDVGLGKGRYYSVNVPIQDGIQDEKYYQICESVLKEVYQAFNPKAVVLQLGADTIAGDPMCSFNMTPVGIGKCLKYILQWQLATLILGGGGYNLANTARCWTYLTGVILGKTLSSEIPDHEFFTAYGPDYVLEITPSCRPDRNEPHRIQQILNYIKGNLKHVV

T1 sequence (Q13547 whole entry): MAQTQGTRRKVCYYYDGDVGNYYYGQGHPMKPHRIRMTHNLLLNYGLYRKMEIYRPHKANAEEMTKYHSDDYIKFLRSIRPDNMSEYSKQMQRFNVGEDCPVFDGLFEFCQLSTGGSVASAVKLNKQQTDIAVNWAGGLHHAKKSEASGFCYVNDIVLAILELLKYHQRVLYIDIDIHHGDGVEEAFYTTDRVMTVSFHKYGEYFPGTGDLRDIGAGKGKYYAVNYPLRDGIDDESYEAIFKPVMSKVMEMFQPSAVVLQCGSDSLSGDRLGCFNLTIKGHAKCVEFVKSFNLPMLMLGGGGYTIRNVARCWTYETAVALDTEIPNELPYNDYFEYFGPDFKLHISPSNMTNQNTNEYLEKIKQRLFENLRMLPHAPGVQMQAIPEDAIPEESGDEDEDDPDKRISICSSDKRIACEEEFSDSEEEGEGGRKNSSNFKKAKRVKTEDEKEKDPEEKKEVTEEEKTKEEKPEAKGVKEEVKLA

| SMILES | IC50 (Recombinant human HDAC1) | IC50 (HDAC6) | IC50 [1] | IC50 (Recombinant human HDAC2) | IC50 (Recombinant human HDAC8) |
| --- | --- | --- | --- | --- | --- |
| CCC(=O)CCCCC[C@H](NC(=O)[C@H]1CC12CCN(C)CC2)c1ncc(-c2cc(OC)ncc2F)o1 [Compound 220] | 29.9 nM | > 900 nM | 33.5 nM | 251 nM | > 900 nM |
| CCC(=O)CCCCC[C@H](NC(=O)C1=NOC2(CCN(C)CC2)C1)c1ncc(-c2cc3ccc(C)nc3cc2F)o1 [Compound 221] | 8.62 nM | > 900 nM | 13.6 nM | 54.5 nM | > 900 nM |
